# Measurements from patent US8501713B2, “Drug combinations for the treatment of duchenne muscular dystrophy” (Summit Corporation PLC, priority 2007, dated 2013).
# System: Utrophin A promoter linked to a luciferase reporter gene
# Assay: Luciferase reporter assay (murine H2K cells)
# Assay type: cell-based
# Details: Mus musculus, H2K mdx, luciferase level relative to control; H2K/mdx/Utro A reporter cells; compound 10 μM final concentration; read-out: Activity
# Description: 1. Luciferase Reporter Assay (Murine H2K Cells)
# The cell line used for the screen is an immortalized mdx mouse H2K cell line that has been stably transfected with a plasmid containing […] fragment of the Utrophin A promoter including the first untranslated exon linked to a luciferase reporter gene. Under conditions of low temperature and interferon containing media, the cells remain as myoblasts. These are plated into 96 well plates and cultured in the presence of compound for three days. The level of luciferase is then determined by cell lysis and reading of the light output from the expressed luciferase gene utilising a plate luminometer.
# H2K/mdx/Utro A reporter Cell Line Maintenance
# The cells were grown at 33° C. in the presence of 10% CO2. To remove the myoblasts for platting, they were incubated with Trypsin EDTA until the monolayer started to detach.
# The plates were then incubated at 33° C. in the presence of 10% CO2 for 24 hrs. Compounds were dosed by adding 10 μl of diluted compound to each well giving a final concentration of 10 μM. The plates were then incubated for a further 48 hrs. Cells were then lysed in situ following the manufacture's protocols (Promega Steady-Glo Luciferase Assay System (E2520). Then counted for 10 seconds using a plate luminometer (Victor1420).
# Compounds for screening were stored at −20° C. as 10 mM stocks in 100% DMSO until required.
# Biological activity as assessed using the luciferase reporter assay in murine H2K cells, and is classified as follows: […]
row,SMILES,activity at 10 µM
1,"O=C(Cc1ccccc1)Nc1ccc2oc(-c3cccnc3)nc2c1 [Example 50, 2-phenyl-N-(2-(pyridin-3-yl)benzo[d]oxazol-5-yl)acetamide]",< 200%
2,"O=C(CCc1ccccc1)Nc1ccc2oc(-c3cccnc3)nc2c1 [Example 51, 3-phenyl-N-(2-(pyridin-3-yl)benzo[d]oxazol-5-yl)propanamide]",< 200%
3,"O=C(C=Cc1ccccc1)Nc1ccc2oc(-c3cccnc3)nc2c1 [Example 52, N-(2-(pyridin-3-yl)benzo[d]oxazol-5-yl)cinnamamide]",< 200%
4,"CCC(=O)Nc1ccc2oc(-c3cccnc3)nc2c1 [Example 53, N-(2-(pyridin-3-yl)benzo[d]oxazol-5-yl)propionamide]",< 200%
5,"CCCC(=O)Nc1ccc2oc(-c3cccnc3)nc2c1 [Example 54, N-(2-(pyridin-3-yl)benzo[d]oxazol-5-yl)butyramide]",< 200%
6,"CCCCC(=O)Nc1ccc2oc(-c3cccnc3)nc2c1 [Example 55, N-(2-(pyridin-3-yl)benzo[d]oxazol-5-yl)pentanamide]",< 200%
7,"CC(C)C(=O)Nc1ccc2oc(-c3cccnc3)nc2c1 [Example 56, N-(2-(pyridin-3-yl)benzo[d]oxazol-5-yl)isobutyramide]",201 to 300%
8,"O=C(Nc1ccc2oc(-c3cccnc3)nc2c1)c1ccco1 [Example 57, N-(2-(pyridin-3-yl)benzo[d]oxazol-5-yl)furan-2-carboxamide]",< 200%
9,"O=C(Nc1ccc2oc(-c3ccccc3)nc2c1)c1ccccc1 [Example 59, N-(2-phenylbenzo[d]oxazol-5-yl)benzamide]",201 to 300%
10,"CCN(CC)c1ccc(-c2nc3cc(NC(=O)c4cccnc4)ccc3o2)cc1 [Example 60, N-(2-(4-(diethylamino)phenyl)benzo[d]oxazol-5-yl)nicotinamide]",201 to 300%
11,"CCN(CC)c1ccc(-c2nc3cc(NC(=O)c4ccncc4)ccc3o2)cc1 [Example 61, N-(2-(4-(diethylamino)phenyl)benzo[d]oxazol-5-yl)isonicotinamide]",< 200%
12,"CCN(CC)c1ccc(-c2nc3cc(NC(=O)c4ccccc4)ccc3o2)cc1 [Example 62, N-(2-(4-(diethylamino)phenyl)benzo[d]oxazol-5-yl)benzamide]",< 200%
13,"CCN(CC)c1ccc(-c2nc3cc(NC(=O)c4ccc(Cl)cc4)ccc3o2)cc1 [Example 63, 4-chloro-N-(2-(4-(diethylamino)phenyl)benzo[d]oxazol-5-yl)benzamide]",< 200%
14,"CCN(CC)c1ccc(-c2nc3cc(NC(=O)c4ccc(C)cc4)ccc3o2)cc1 [Example 64, N-(2-(4-(diethylamino)phenyl)benzo[d]oxazol-5-yl)-4-methylbenzamide]",< 200%
15,"CCN(CC)c1ccc(-c2nc3cc(NC(=O)c4ccc(OC)cc4)ccc3o2)cc1 [Example 65, N-(2-(4-(diethylamino)phenyl)benzo[d]oxazol-5-yl)-4-methoxybenzamide]",< 200%
16,"CCN(CC)c1ccc(-c2nc3cc(NC(=O)c4ccccc4OC)ccc3o2)cc1 [Example 66, N-(2-(4-(diethylamino)phenyl)benzo[d]oxazol-5-yl)-2-methoxybenzamide]",< 200%
17,"CCN(CC)c1ccc(-c2nc3cc(NC(=O)c4ccc(N(C)C)cc4)ccc3o2)cc1 [Example 67, N-(2-(4-(diethylamino)phenyl)benzo[d]oxazol-5-yl)-4-(dimethylamino)benzamide]",201 to 300%
18,"CCN(CC)c1ccc(-c2nc3cc(NC(=O)c4ccc(Cl)c(Cl)c4)ccc3o2)cc1 [Example 68, 3,4-dichloro-N-(2-(4-(diethylamino)phenyl)benzo[d]oxazol-5-yl)benzamide]",< 200%

row,SMILES,activity at 10 µM
1,"CCN(CC)c1ccc(-c2nc3cc(NC(=O)c4ccc(C(F)(F)F)cc4)ccc3o2)cc1 [Example 69, N-(2-(4-(diethylamino)phenyl)benzo[d]oxazol-5-yl)-4-(trifluoromethyl)benzamide]",< 200%
2,"CCN(CC)c1ccc(-c2nc3cc(NC(=O)c4cc(Cl)cc(Cl)c4)ccc3o2)cc1 [Example 70, 3,5-dichloro-N-(2-(4-(diethylamino)phenyl)benzo[d]oxazol-5-yl)benzamide]",< 200%
3,"CCN(CC)c1ccc(-c2nc3cc(NC(=O)c4ccc(F)cc4)ccc3o2)cc1 [Example 71, N-(2-(4-(diethylamino)phenyl)benzo[d]oxazol-5-yl)-4-fluorobenzamide]",< 200%
4,"CCN(CC)c1ccc(-c2nc3cc(NC(=O)c4ccc(-c5ccccc5)cc4)ccc3o2)cc1 [Example 72, N-(2-(4-(diethylamino)phenyl)benzo[d]oxazol-5-yl)biphenyl-4-carboxamide]",< 200%
5,"CCN(CC)c1ccc(-c2nc3cc(NC(=O)Cc4ccccc4)ccc3o2)cc1 [Example 73, N-(2-(4-(diethylamino)phenyl)benzo[d]oxazol-5-yl)-2-phenylacetamide]",201 to 300%
6,"CCN(CC)c1ccc(-c2nc3cc(NC(=O)CCc4ccccc4)ccc3o2)cc1 [Example 74, N-(2-(4-(diethylamino)phenyl)benzo[d]oxazol-5-yl)-3-phenylpropanamide]",< 200%
7,"CCC(=O)Nc1ccc2oc(-c3ccc(N(CC)CC)cc3)nc2c1 [Example 75, N-(2-(4-(diethylamino)phenyl)benzo[d]oxazol-5-yl)propionamide]",201 to 300%
8,"CCCC(=O)Nc1ccc2oc(-c3ccc(N(CC)CC)cc3)nc2c1 [Example 76, N-(2-(4-(diethylamino)phenyl)benzo[d]oxazol-5-yl)butyramide]",< 200%
9,"CCCCC(=O)Nc1ccc2oc(-c3ccc(N(CC)CC)cc3)nc2c1 [Example 77, N-(2-(4-(diethylamino)phenyl)benzo[d]oxazol-5-yl)pentanamide]",201 to 300%
10,"CCN(CC)c1ccc(-c2nc3cc(NC(=O)C(C)C)ccc3o2)cc1 [Example 78, N-(2-(4-(diethylamino)phenyl)benzo[d]oxazol-5-yl)isobutyramide]",< 200%
11,"CCN(CC)c1ccc(-c2nc3cc(NC(=O)c4cccs4)ccc3o2)cc1 [Example 79, N-(2-(4-(diethylamino)phenyl)benzo[d]oxazol-5-yl)thiophene-2-carboxamide]",< 200%
12,"CCCc1ccc2oc(-c3cccc(C(=O)O)c3)nc2c1 [Example 80, 3-(5-propylbenzo[d]oxazol-2-yl)benzoic acid]",< 200%
13,"O=C(Nc1ccc2oc(-c3cccnc3)nc2c1)c1cccnc1 [Example 81, N-(2-(pyridin-3-yl)benzo[d]oxazol-5-yl)nicotinamide]",< 200%
14,"Nc1ccc(-c2nc3cc(N)ccc3o2)c(O)c1 [Example 82, 5-amino-2-(5-aminobenzo[d]oxazol-2-yl)phenol]",201 to 300%
15,"COc1ccc(C(=O)Nc2ccc3oc(-c4ccc(OC)cc4)nc3c2)cc1 [Example 83, 4-methoxy-N-(2-(4-methoxyphenyl)benzo[d]oxazol-5-yl)benzamide]",< 200%
16,"CCS(=O)(=O)c1ccc2oc(-c3ccccc3)nc2c1 [Example 84, 5-(ethylsulfonyl)-2-phenylbenzo[d]oxazole]",201 to 300%
17,"c1ccc(-c2ccc3oc(-c4ccccc4)nc3c2)cc1 [Example 85, 2,5-diphenylbenzo[d]oxazole]",301 to 400%
18,"c1ccc(-c2nc3c(ccc4ccccc43)o2)cc1 [Example 86, 2-phenylnaphtho[1,2-d]oxazole]",301 to 400%
